We go through 11 compounds from patent US11730720B2, “ALK5 inhibitors” (THERAVANCE BIOPHARMA R&D IP, LLC, priority 2018, dated 2023).

The target of assay [1] is T1, recombinant human ALK5 (TGF-βR1) protein (Homo sapiens, UniProt P36897).
T1 construct: purchased Life Technologies PR9075A
T1 sequence (P36897 34-503): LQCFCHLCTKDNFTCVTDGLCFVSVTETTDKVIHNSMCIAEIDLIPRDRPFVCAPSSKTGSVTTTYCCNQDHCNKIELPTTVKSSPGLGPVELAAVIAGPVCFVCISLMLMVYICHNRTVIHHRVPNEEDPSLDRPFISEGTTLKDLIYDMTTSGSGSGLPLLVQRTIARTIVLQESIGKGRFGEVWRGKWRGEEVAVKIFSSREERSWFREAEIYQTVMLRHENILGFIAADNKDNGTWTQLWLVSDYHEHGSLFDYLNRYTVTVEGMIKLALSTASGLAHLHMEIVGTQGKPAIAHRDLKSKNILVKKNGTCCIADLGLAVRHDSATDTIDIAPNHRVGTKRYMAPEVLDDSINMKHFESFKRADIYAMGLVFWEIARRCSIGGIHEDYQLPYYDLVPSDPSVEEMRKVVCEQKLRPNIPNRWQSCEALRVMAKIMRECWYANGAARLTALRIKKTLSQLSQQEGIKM
As to the kind of experiment: Biochemical ALK5 (TGF-βR1) assay to measure pKi (LANCE Ultra ULight kinase assay). Conditions: apparent pKi, converted from pIC50 using the Cheng-Prusoff equation. The gist of the method: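 TR-FRET kinase format: compound dose range 10 μM–25 pM equilibrated 60 min with human ALK5 and ULight-labelled topoisomerase 2α peptide in HEPES/MgCl2 buffer pH 7.5 with DTT. Reaction started with ATP (125 μM stock, 5× final), 60 min at 37° C, stopped with EDTA/Eu-anti-phospho antibody; pKi derived from pIC50 via Cheng-Prusoff.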
For orientation: Time-resolved FRET reads energy transfer from a long-lived donor to a nearby acceptor.

Assay [2] concerns TGF-β-stimulated SMAD3 phosphorylation in BEAS-2B cells. As to the kind of experiment: Cellular ALK5 potency assay, inhibition of TGF-β stimulated pSMAD3 formation in BEAS-2B cells. The assay is classed as cell-based. Particulars: Homo sapiens, inhibition of TGF-β (10 ng/mL) stimulated pSMAD3 formation, 1 hour compound incubation, read-out: BEAS2B pIC50 (converted). The gist of the method: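 Phospho-SMAD3 was quantified by AlphaLISA in lysates of human lung epithelial BEAS-2B cells. Compound was added 1 h (37 °C, HEPES/BSA-supplemented HBSS) before a 30 min challenge with 10 ng/mL TGF-β. Values are pIC50 relative to stimulated cells without compound.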

pKi: −log10 of the molar value.

By pKi is commonly meant −log10 of the Ki, conventionally taken in molar units. Regarding `Fc1ccc(Cl)cc1-c1n[nH]cc1-c1ccc2ncc(-c3cnc4n3CCCN4)cc2n1` [Compound 1-124, 2-[3-(5-chloro-2-fluoro-phenyl)-1H-pyrazol-4-yl]-7-(5,6,7,8-tetrahydroimidazo[1,2-a]pyrimidin-3-yl)-1,5-naphthyridine], in assay [1], the pKi is 9.50 to 10.40. The IC50 in assay [2] was 25.1 to 158 nM.
For `Fc1ccc(Cl)cc1-c1nc2ccccn2c1-c1ccc2ncc(-c3nc4n(n3)CCNC4)cc2n1` [Compound 3-9, 2-[2-(5-chloro-2-fluoro-phenyl)imidazo[1,2-a]pyridin-3-yl]-7-(5,6,7,8-tetrahydro-[1,2,4]triazolo[1,5-a]pyrazin-2-yl)-1,5-naphthyridine], in that order: 9.50 to 10.40 and 25.1 to 158 nM.
Take `NCCN1CCN(c2cnc3ccc(-c4c[nH]nc4-c4cc(Cl)c(F)cc4F)nc3c2)CC1` [Compound 6-36, 2-[4-[6-[3-(5-chloro-2,4-difluoro-phenyl)-1H-pyrazol-4-yl]-1,5-naphthyridin-3-yl]piperazin-1-yl]ethanamine]: the pKi in assay [1] was 9.50 to 10.40. The IC50 in assay [2] was 25.1 to 158 nM.
Regarding `CN(C)C1CCN(c2cnc3ccc(-c4c[nH]nc4-c4ccc(F)c(F)c4)nc3c2)C1` (racemic) [Compound 8-5, rac-(3S)-1-[6-[3-(3,4-difluorophenyl)-1H-pyrazol-4-yl]-1,5-naphthyridin-3-yl]-N,N-dimethyl-pyrrolidin-3-amine], the pKi in assay [1] was 8.50 to 9.40. For the same compound, the IC50 in assay [2] was 25.1 to 158 nM.
As for `Fc1ccc(Cl)cc1-c1n[nH]cc1-c1ccc2ncc(Nc3ccc(N4CCNCC4)cn3)cc2n1` [Compound 1-15, 6-(3-(5-chloro-2-fluorophenyl)-1H-pyrazol-4-yl)-N-(5-(piperazin-1-yl)pyridin-2-yl)-1,5-naphthyridin-3-amine], the pKi in assay [1] was 9.50 to 10.40. Besides, the IC50 in assay [2] is 25.1 to 158 nM.
For the compound `CN(C)C1CCN(c2cnc3ccc(-c4c[nH]nc4-c4cc(Cl)ccc4F)nc3c2)CC1` [Compound 1-45, 1-[6-[3-(5-chloro-2-fluoro-phenyl)-1H-pyrazol-4-yl]-1,5-naphthyridin-3-yl]-N,N-dimethyl-piperidin-4-amine], the pKi in assay [1] is 9.50 to 10.40. Besides, the IC50 in assay [2] was at most 20 nM.
For `COCc1cccc(-c2n[nH]cc2-c2ccc3ncc(N4CCC(N5CCCC5)CC4)cc3n2)c1` [Compound 14-3, 2-[3-[3-(methoxymethyl)phenyl]-1H-pyrazol-4-yl]-7-(4-pyrrolidin-1-yl-1-piperidyl)-1,5-naphthyridine], in assay [1], the pKi is 7.50 to 8.40. Moreover, the IC50 in assay [2] was 25.1 to 158 nM.
With `Fc1ccc(Cl)cc1-c1n[nH]cc1-c1ccc2ncc(-c3ncc4n3CCN4)cc2n1` [Compound 1-129, 2-[3-(5-chloro-2-fluoro-phenyl)-1H-pyrazol-4-yl]-7-(2,3-dihydro-1H-imidazo[1,2-c]imidazol-5-yl)-1,5-naphthyridine], the negative logarithm of the Ki (pKi) in assay [1] is 8.50 to 9.40. Further, the IC50 in assay [2] is 200 to 1260 nM.
The matching figures for `CC(C)N1CCN(CCNc2cnc3ccc(-c4c(-c5cc(Cl)ccc5F)nc5ccccn45)cc3c2)CC1` [Compound 19-6, 6-(2-(5-chloro-2-fluorophenyl)imidazo[1,2-a]pyridin-3-yl)-N-(2-(4-isopropylpiperazin-1-yl)ethyl)quinolin-3-amine]: 8.50 to 9.40 and 200 to 1260 nM.
With `Fc1ccc(Cl)cc1-c1[nH]cnc1-c1ccc2ncc(-c3cn4c(n3)CNCC4)cc2c1` [Compound 17-14, 6-[5-(5-chloro-2-fluoro-phenyl)-1H-imidazol-4-yl]-3-(5,6,7,8-tetrahydroimidazo[1,2-a]pyrazin-2-yl)quinoline], the pKi in assay [1] was 9.50 to 10.40. For the same compound, in assay [2], the IC50 is 25.1 to 158 nM.
For `Fc1ccc(Cl)cc1-c1n[nH]cc1-c1ccc2ncc(-c3cn[nH]c3)cc2c1` [Compound 16-2, 6-[3-(5-chloro-2-fluoro-phenyl)-1H-pyrazol-4-yl]-3-(1H-pyrazol-4-yl)quinoline], the pKi in assay [1] is 9.50 to 10.40. Besides, the IC50 in assay [2] was at most 20 nM.
